# Test results taken from patent EP4725956A1, “MODIFIED POLYPEPTIDE AND USE THEREOF IN FIELD OF ANALGESIA” (Nanjing Anji Biotechnology Co., Ltd., priority 2023, dated 2024).
# Positions of bridges follow the written chain, without caps; N, C: chain ends. Non-standard residues stand in square brackets, D forms with d. Residues, ends and D or L forms follow the SMILES beside them. Bip = N[C@@H](Cc1ccc(-c2ccccc2)cc1)C(=O)O; Hyp = O=C(O)[C@@H]1C[C@@H](O)CN1; Nle = CCCC[C@H](N)C(=O)O; Orn = NCCC[C@H](N)C(=O)O; Aib = CC(C)(N)C(=O)O
# System: rat CCI model
# Test: Rat CCI (chronic constriction injury) model (Example 9)
# Type: in vivo
# Text: Neuropathic pain has many types, and animal models can simulate clinical neuropathic pain. Common SD rat sciatic nerve neuropathic pain models include CCI (Chronic Constriction Injury), SNI (Spared Nerve Injury), SNL (Spinal Nerve Ligation), and CCD (using stainless steel wire through the intervertebral foramen to fix and compress the dorsal root ganglion). Among them, the CCI model is widely used to study neuropathic pain, providing a basis for further research on mechanisms and strategies for nerve injury repair (Wen Xiaojun, Medical Information, Jan. 2018, Vol. 31, No.1). In this example, the CCI model was employed.
# Except for the control group, the remaining SD rats were anesthetized via intraperitoneal injection of 10% chloral hydrate saline solution at a dose of 0.3 mL per 100 g body weight, and surgical modeling was performed. The right hind limb skin was carefully incised, muscles were separated, and the sciatic nerve was ligated three times using 4-0 surgical silk, spaced 1 mm apart. Muscles and skin were sutured, and antibiotics were applied to the wound to prevent infection. […] Approximately 10 days post-surgery, plantar pain thresholds were measured three times for each rat, and the average value was calculated. Rats were randomly assigned to groups based on pain thresholds. Drug administration was performed according to Table 8, and plantar pain thresholds were measured at 2 h, 4 h, 6 h, and 8 h after administration.
smiles,measurement,setting,value
"CCCC[C@H](NC(=O)[C@@H](NC(=O)[C@H]1CSSC[C@H](NC(=O)[C@H](CO)NC(=O)CN)C(=O)N[C@@H](CO)C(=O)N[C@H]([C@H](C)O)C(=O)N2C[C@H](O)C[C@H]2C(=O)N2C[C@H](O)C[C@H]2C(=O)NC(C)(C)C(=O)N1)C(C)C)C(=O)N[C@@H](Cc1ccc(-c2ccccc2)cc1)C(=O)N[C@@H](CCCN)C(N)=O [AJ003-36, GSCS-(D-Thr)-Hyp-Hyp-Aib-(D-Cys)-V-Nle-Bip-Orn-NH2 (3,9 disulfide bond)] (H-GSCS[dT][Hyp][Hyp][Aib][dC]V[Nle][Bip][Orn]-NH2; disulfide 3-9)",analgesic activity compared with the model group (mechanical pain threshold),"Day 1 of dosing, 8 h, 2 mg/kg s.c. (high dose)",significant analgesic activity
same,analgesic activity compared with the model group (mechanical pain threshold),"Day 4 of dosing, 2 h and 4 h, 0.5 mg/kg s.c. (low dose)",significant analgesic activity
same,analgesic activity compared with the model group (mechanical pain threshold),"Day 4 of dosing, 2 h and 4 h, 1 mg/kg s.c. (AJ003; AJ003-36 medium dose)",significant analgesic activity
same,analgesic activity compared with the model group (mechanical pain threshold),"Day 4 of dosing, 2 h and 4 h, 2 mg/kg s.c. (high dose)",significant analgesic activity
same,analgesic activity compared with the model group (mechanical pain threshold),"Day 4 of dosing, 6 h and 8 h, 0.5 mg/kg s.c. (low dose)",no longer significant
same,analgesic activity compared with the model group (mechanical pain threshold),"Day 4 of dosing, 6 h and 8 h, 1 mg/kg s.c. (AJ003; AJ003-36 medium dose)",remained significant
same,analgesic activity compared with the model group (mechanical pain threshold),"Day 4 of dosing, 6 h and 8 h, 2 mg/kg s.c. (high dose)",remained significant
same,analgesic activity compared with the model group (mechanical pain threshold),"Day 7 of dosing, 2 h and 4 h, 0.5 mg/kg s.c. (low dose)",significant analgesic activity
same,analgesic activity compared with the model group (mechanical pain threshold),"Day 7 of dosing, 2 h and 4 h, 1 mg/kg s.c. (AJ003; AJ003-36 medium dose)",significant analgesic activity
same,analgesic activity compared with the model group (mechanical pain threshold),"Day 7 of dosing, 2 h and 4 h, 2 mg/kg s.c. (high dose)",significant analgesic activity
same,analgesic activity compared with the model group (mechanical pain threshold),"Day 7 of dosing, 6 h, 0.5 mg/kg s.c. (low dose)",still significant
same,analgesic activity compared with the model group (mechanical pain threshold),"Day 7 of dosing, 6 h, 1 mg/kg s.c. (AJ003; AJ003-36 medium dose)",still significant
same,analgesic activity compared with the model group (mechanical pain threshold),"Day 7 of dosing, 6 h, 2 mg/kg s.c. (high dose)",still significant
same,analgesic activity compared with the model group (mechanical pain threshold),"Day 7 of dosing, 8 h, 0.5 mg/kg s.c. (low dose)",not significant
same,analgesic activity compared with the model group (mechanical pain threshold),"Day 7 of dosing, 8 h, 1 mg/kg s.c. (AJ003; AJ003-36 medium dose)",remained significant
same,analgesic activity compared with the model group (mechanical pain threshold),"Day 7 of dosing, 8 h, 2 mg/kg s.c. (high dose)",remained significant
same,analgesic activity compared with the model group (mechanical pain threshold),"Day 10 of dosing, 2 h and 4 h, 0.5 mg/kg s.c. (low dose)",significant analgesic activity
same,analgesic activity compared with the model group (mechanical pain threshold),"Day 10 of dosing, 2 h and 4 h, 1 mg/kg s.c. (AJ003; AJ003-36 medium dose)",significant analgesic activity
same,analgesic activity compared with the model group (mechanical pain threshold),"Day 10 of dosing, 2 h and 4 h, 2 mg/kg s.c. (high dose)",significant analgesic activity
same,analgesic activity compared with the model group (mechanical pain threshold),"Day 10 of dosing, 6 h, 0.5 mg/kg s.c. (low dose)",remained significant
same,analgesic activity compared with the model group (mechanical pain threshold),"Day 10 of dosing, 6 h, 1 mg/kg s.c. (AJ003; AJ003-36 medium dose)",remained significant
same,analgesic activity compared with the model group (mechanical pain threshold),"Day 10 of dosing, 6 h, 2 mg/kg s.c. (high dose)",remained significant
same,analgesic activity compared with the model group (mechanical pain threshold),"Day 10 of dosing, 8 h, 0.5 mg/kg s.c. (low dose)",not significant
same,analgesic activity compared with the model group (mechanical pain threshold),"Day 10 of dosing, 8 h, 1 mg/kg s.c. (AJ003; AJ003-36 medium dose)",remained significant
same,analgesic activity compared with the model group (mechanical pain threshold),"Day 10 of dosing, 8 h, 2 mg/kg s.c. (high dose)",remained significant
same,analgesic activity compared with the model group (mechanical pain threshold),"Day 14 of dosing, 2 h and 4 h, 0.5 mg/kg s.c. (low dose)",significant analgesic activity
same,analgesic activity compared with the model group (mechanical pain threshold),"Day 14 of dosing, 2 h and 4 h, 1 mg/kg s.c. (AJ003; AJ003-36 medium dose)",significant analgesic activity
same,analgesic activity compared with the model group (mechanical pain threshold),"Day 14 of dosing, 2 h and 4 h, 2 mg/kg s.c. (high dose)",significant analgesic activity
same,analgesic activity compared with the model group (mechanical pain threshold),"Day 14 of dosing, 6 h, 0.5 mg/kg s.c. (low dose)",remained significant
same,analgesic activity compared with the model group (mechanical pain threshold),"Day 14 of dosing, 6 h, 1 mg/kg s.c. (AJ003; AJ003-36 medium dose)",remained significant
same,analgesic activity compared with the model group (mechanical pain threshold),"Day 14 of dosing, 6 h, 2 mg/kg s.c. (high dose)",remained significant
same,analgesic activity compared with the model group (mechanical pain threshold),"Day 14 of dosing, 8 h, 0.5 mg/kg s.c. (low dose)",not significant
same,analgesic activity compared with the model group (mechanical pain threshold),"Day 14 of dosing, 8 h, 1 mg/kg s.c. (AJ003; AJ003-36 medium dose)",remained significant
same,analgesic activity compared with the model group (mechanical pain threshold),"Day 14 of dosing, 8 h, 2 mg/kg s.c. (high dose)",remained significant
